Source: article PMC8047011, “Enantiomers of 2-methylglutamate and 2-methylglutamine selectively impact mouse brain metabolism and behavior” (Scientific Reports, 2021)
pEC50: −log10 of the molar value.

Tests used:
GABAA α4β2γ2 = target: T1, GABAA α4β2γ2 (Homo sapiens, UniProt P47870+P48169); test: FLIPR functional receptor assay, GABAA α4β2γ2; type: cell-based; details: agonist mode; top test concentration 1 mM
T1 construct: host or cells: HEK 293
Procedure: intensity and lower number of tone and shock (2x) pairings to create a greater opportunity to observe pharmacologic activity.
Receptor functional & binding assays
Functional assays of all GABAA, NMDA (GluN2A–GluN2D) and AMPA (GluA2) receptor subunits were performed by SB Drug Discovery as a part of their CNS discovery panel using FLIPR technology. Briefly, receptor-expressing HEK 293 cell lines were incubated in a red membrane potential dye in HEPES:HBSS pH 7.4 buffer and the fluorescence (λex: 488, λex: 510–570) was monitored over time as the test compounds and/or reference compounds were added to the solution. In agonist assay, only test compounds were added. In positive allosteric modulator assay, cells were preincubated with test compounds and then low concentration (approximately EC20) of an appropriate agonist was added. In antagonist assay, cells were preincubated with test compounds and then high concentration (approximately EC80) of an appropriate agonist was added. For GABAA assays, GABA was used as the agonist, picrotoxin was used as the reference antagonist and allopregnanolone was used as the reference positive allosteric modulator (PAM). […] All compounds were tested at 7 concentration points in triplicate and EC50/IC50 was determined where applicable. […]

[1] = tested on: primary murine cerebral astrocytes; test: Astrocyte transport and metabolism of 2MeGlu; type: cell-based, mouse; details: 1 mM substrate, 2 h, 37 °C
Procedure: Primary astrocytes from C57Bl/6 mouse brain were cultured in complete astrocyte growth medium at 37 °C at 5% CO2 on 96 well plates. Cells were exposed to 1 mM compound in 100 μL medium for 2 h at 37 °C. Supernatants were collected, centrifuged at 2500g for 10 min at 4 °C. 10 μL aliquots were diluted with 190 μL 60% ACN containing 10 μM Glu-d5 and Gln-d5. Cells were quickly washed with 250 μL cold PBS twice and suspended in 200 μL of 60% ACN containing 10 μM Glu-d5 and Gln-d5. All samples were shaken at 1000 rpm for 5 min and then stored at – 80 °C.

GABAB (B1/B2) = target: T2, GABAB (B1/B2) (Homo sapiens, UniProt Q9UBS5); test: Functional GABAB assay, Ca2+-dependent fluorimetry in RBL cells; type: cell-based; details: 100 μM, triplicate
T2 construct: purchased SB Drug Discovery (CNS discovery panel, FLIPR); Eurofins Discovery (Cerep)

C57Bl/6 mice = type: in vivo; details: for Distance moved in the novel cage: single dose 100, 300, or 900 mg/kg IP, dose- and time-dependent, P < 0.001
Procedure: See Supplementary Methods for details.
The lysate was centrifuged (2,500g for 15 min at 4 °C) and the supernatant was assayed using Pierce BCA Protein Assay Kit (23225) using BioTek Epoch plate spectrophotometer by recording absorbance at 562 nm.
Two or three 10 μL aliquots of the homogenate were transferred to a 96 well plate and extracted with 190 μL of 60% acetonitrile in water containing 10 μM GABA-d6 or 10 μM Glu-d5 and Gln-d5 as internal standards. 40 μL aliquots of the extracts were then diluted with 120 μL of acetonitrile and prepared for LC-MS/MS analysis. Brain and serum half-lives were calculated using the ‘PKNCA’ package for R. Endogenous levels of Glu, Gln and GABA were determined in the brains of mice used in the pharmacokinetics experiment. MRM transitions specific for Glu, Gln and GABA were monitored simultaneously.
In vivo animal studies; Maximum Tolerated Dose (MTD) and behavioral studies […]
000664) were group-housed in a Stanford University animal facility with 12:12 hour light/dark cycle ([…]) and had free access to water and food. All behavioral tests were conducted during the animal dark-cycle. […]
Novel Cage Observation: The mouse was dosed and immediately placed in the center of a clean, Innovive disposable rat cage with bedding (dimensions: 17"L x 13.4"W x 7.8"H) and allowed to move freely while being tracked automatically. Mice were monitored with Ethovision XT tracking software for the distance moved and average velocity during the 60-minute trial. […]
Hot plate test: Hot Plate apparatus (IITC Inc. Model 39) was set to 55°C± 0.2. […] Latency time was recorded when hind paw licking or jumping off first occurred.
SHIRPA: The SHIRPA preliminary screen designed by Rogers et al. (1997) was modified and used to assess the general health and behavioral traits of the mice for the initial five minutes after drug administration. […] The test began by placing the mouse in the clear plastic viewing jar for 60 seconds, and the behavioral parameters were monitored and recorded. […]
Behavioral parameters monitored were according to Portmann et al. (2014). […]

GABAB (B1a/B2) = target: T3, GABAB (B1a/B2) (Homo sapiens, UniProt Q9UBS5); test: GABAB (B1a/B2) binding assay; details: triplicate, read-out: % of radioligand binding inhibition, GABAB (B1a/B2)
T3 construct: purchased SB Drug Discovery (CNS discovery panel, FLIPR); Eurofins Discovery (Cerep)
Procedure: mGluR1, mGluR2, mGluR5 and GABAB binding assays were performed by Eurofins Discovery. […]
mGluR5 and GABAB binding assays were performed using recombinant CHO-K1 cells and
[3H]CGP-54626 and [3H]quisqalic acid, respectively. All compounds were tested at a single
concentration of 100 uM in triplicate. […]

T2 sequence (Q9UBS5 20-961): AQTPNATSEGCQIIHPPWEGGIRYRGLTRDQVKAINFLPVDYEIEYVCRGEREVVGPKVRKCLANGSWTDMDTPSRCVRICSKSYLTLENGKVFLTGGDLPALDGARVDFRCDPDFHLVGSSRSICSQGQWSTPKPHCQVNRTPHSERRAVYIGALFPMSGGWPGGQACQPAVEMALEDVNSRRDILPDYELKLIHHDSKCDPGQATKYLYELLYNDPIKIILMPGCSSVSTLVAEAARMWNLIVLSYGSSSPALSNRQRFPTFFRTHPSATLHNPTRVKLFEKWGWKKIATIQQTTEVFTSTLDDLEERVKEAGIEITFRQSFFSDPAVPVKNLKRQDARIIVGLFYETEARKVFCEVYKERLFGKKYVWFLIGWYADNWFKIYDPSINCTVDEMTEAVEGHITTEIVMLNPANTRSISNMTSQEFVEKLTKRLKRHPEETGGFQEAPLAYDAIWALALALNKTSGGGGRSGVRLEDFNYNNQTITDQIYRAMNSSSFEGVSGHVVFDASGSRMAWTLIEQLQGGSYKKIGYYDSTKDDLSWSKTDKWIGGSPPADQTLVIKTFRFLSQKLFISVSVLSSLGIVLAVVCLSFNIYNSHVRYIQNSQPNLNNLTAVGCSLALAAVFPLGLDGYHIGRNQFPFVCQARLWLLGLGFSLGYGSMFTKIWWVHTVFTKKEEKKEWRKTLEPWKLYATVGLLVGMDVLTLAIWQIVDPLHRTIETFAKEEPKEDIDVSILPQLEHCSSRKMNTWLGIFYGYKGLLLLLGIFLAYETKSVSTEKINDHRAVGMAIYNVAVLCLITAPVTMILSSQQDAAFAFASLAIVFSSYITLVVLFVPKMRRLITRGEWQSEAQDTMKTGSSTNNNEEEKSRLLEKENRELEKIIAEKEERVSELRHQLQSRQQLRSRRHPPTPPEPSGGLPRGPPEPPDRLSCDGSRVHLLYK
T2 sequence (O75899 42-941 partner): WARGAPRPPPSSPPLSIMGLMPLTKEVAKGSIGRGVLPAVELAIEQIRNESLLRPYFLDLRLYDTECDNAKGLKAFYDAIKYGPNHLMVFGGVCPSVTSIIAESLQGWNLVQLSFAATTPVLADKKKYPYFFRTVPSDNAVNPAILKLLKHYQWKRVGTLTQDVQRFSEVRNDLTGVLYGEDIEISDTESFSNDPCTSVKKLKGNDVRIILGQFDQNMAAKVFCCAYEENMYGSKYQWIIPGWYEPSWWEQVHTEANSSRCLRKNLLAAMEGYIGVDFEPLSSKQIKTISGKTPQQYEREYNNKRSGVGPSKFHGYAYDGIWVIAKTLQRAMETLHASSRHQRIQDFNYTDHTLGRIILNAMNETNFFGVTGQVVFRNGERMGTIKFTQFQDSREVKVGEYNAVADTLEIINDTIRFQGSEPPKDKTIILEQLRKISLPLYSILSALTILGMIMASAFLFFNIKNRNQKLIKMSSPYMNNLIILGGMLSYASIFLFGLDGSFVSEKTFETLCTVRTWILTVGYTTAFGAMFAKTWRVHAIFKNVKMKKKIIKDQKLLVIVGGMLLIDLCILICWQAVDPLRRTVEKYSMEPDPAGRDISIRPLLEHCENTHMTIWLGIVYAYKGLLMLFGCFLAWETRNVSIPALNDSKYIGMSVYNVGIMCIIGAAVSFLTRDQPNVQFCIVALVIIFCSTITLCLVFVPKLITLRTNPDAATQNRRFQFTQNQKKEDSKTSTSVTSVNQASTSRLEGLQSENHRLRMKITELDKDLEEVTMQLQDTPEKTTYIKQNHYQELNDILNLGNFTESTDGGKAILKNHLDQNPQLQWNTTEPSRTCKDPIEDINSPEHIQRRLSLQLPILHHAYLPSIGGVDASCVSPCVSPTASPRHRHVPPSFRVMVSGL
T3 sequence (Q9UBS5 15-961 limits assumed): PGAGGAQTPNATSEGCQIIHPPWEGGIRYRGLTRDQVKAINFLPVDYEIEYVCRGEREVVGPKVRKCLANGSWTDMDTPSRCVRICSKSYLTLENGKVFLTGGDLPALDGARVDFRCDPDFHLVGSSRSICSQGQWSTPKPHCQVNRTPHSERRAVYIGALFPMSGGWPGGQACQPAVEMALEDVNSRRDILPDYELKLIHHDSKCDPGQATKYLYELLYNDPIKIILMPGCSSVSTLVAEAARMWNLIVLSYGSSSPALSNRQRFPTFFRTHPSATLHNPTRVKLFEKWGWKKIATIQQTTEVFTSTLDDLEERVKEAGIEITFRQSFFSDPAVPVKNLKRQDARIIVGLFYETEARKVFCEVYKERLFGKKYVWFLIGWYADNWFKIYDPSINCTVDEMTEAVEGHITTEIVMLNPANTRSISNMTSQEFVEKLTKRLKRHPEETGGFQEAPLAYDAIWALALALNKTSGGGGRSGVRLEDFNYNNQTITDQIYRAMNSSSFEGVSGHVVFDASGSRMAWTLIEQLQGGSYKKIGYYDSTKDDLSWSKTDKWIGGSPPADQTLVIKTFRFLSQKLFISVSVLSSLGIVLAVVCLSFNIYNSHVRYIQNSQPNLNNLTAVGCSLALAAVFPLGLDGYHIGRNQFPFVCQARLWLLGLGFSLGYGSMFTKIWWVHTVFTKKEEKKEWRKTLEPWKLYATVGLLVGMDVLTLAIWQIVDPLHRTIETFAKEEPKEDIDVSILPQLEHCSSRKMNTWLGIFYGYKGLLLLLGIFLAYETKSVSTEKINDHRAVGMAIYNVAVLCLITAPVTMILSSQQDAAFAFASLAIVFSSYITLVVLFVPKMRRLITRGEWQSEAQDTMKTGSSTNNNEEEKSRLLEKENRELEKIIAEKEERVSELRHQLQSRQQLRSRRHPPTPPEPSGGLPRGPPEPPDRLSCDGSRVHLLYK
T3 sequence (O75899 42-941 partner): as the sequence (O75899 42-941 partner) above
T1 sequence (P48169 36-554): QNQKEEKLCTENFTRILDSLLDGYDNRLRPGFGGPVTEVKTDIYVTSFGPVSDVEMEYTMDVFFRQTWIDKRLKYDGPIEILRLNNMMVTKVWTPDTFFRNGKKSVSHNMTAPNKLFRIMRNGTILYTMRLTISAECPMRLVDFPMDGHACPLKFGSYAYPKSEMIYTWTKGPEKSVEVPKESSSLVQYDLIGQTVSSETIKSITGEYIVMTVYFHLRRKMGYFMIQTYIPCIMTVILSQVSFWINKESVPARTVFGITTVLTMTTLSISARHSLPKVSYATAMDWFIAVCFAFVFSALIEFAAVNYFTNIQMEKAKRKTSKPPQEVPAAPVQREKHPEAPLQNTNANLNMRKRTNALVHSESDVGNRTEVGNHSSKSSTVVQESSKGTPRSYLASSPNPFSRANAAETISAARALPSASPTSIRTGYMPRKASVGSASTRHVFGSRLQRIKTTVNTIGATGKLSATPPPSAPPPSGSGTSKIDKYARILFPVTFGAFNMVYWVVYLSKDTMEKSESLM
T1 sequence (P47870 25-512 limits assumed): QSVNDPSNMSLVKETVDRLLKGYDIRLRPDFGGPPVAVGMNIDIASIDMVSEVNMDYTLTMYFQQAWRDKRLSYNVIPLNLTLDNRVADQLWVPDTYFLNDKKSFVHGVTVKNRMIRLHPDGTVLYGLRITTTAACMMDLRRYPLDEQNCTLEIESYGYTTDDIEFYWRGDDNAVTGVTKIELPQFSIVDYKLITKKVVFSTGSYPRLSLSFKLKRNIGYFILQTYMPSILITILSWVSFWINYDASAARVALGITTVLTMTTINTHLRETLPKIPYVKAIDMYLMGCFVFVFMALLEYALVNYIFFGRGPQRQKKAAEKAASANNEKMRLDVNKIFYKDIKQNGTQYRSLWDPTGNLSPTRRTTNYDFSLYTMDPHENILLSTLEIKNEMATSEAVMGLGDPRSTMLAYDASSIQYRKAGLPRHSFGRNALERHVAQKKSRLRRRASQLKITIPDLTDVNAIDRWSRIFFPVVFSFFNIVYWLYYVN
T1 sequence (P18507 40-475 partner): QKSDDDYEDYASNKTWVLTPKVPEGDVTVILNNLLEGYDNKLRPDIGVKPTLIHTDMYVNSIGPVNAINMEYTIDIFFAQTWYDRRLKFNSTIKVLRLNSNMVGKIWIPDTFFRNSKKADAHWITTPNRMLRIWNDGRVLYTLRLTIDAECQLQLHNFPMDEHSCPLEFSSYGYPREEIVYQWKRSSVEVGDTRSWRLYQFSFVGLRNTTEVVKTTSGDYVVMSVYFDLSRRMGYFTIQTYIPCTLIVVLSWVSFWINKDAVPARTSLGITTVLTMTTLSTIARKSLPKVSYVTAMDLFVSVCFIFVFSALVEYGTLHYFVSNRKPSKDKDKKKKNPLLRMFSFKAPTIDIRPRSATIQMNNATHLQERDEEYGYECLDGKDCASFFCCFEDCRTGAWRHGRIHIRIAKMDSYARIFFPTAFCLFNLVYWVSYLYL

## C[C@](N)(CCC(=O)O)C(=O)O [(S)-2MeGlu, (S)-2-methylglutamic acid]
GABAA α4β2γ2
  pEC50: < 3.00
[1]
  Astrocyte uptake and conversion to 2MeGln: transported into astrocytes and then converted into 2MeGln
GABAB (B1/B2)
  % of agonist response, GABAB (B1/B2): 0%
C57Bl/6 mice
  Distance moved in the novel cage: significantly decreased
GABAB (B1a/B2)
  inhibition at 100 µM: 6%

## C[C@@](N)(CCC(=O)O)C(=O)O [(R)-2MeGlu, (R)-2-methylglutamic acid]
GABAA α4β2γ2
  pEC50: < 3.00
[1]
  Astrocyte uptake and conversion to 2MeGln: not detected within astrocytes in significant amounts, and no conversion to 2MeGln was detected
GABAB (B1/B2)
  % of agonist response, GABAB (B1/B2): 0%
C57Bl/6 mice; male, C57Bl/6, mouse, in vivo
  Survival after single dose: Only one mouse died 10 days after 900 mg/kg
C57Bl/6 mice
  Distance moved in the novel cage: significantly decreased
GABAB (B1a/B2)
  inhibition at 100 µM: 18%
